Experimental data taken from EP0536208B1, “1,2-DIHYDRO-3H-DIBENZISOQUINOLINE-1,3-DIONE ANTICANCER AGENTS” (RESEARCH CORPORATION TECHNOLOGIES, INC., priority 1990, dated 1992).
Converted amounts (≈) assume the structure as drawn. Read-outs that look alike come from different tables or passages of the source.

Columns and labels:
[1] = system: P-388 lymphocytic leukemia; test: Survival study in tumor-bearing mice, P-388 leukemia model; assay type: in vivo; conditions: 10^6 cells in DBA mice; 16 mg/kg; d1,5,9; intraperitoneally
From the text: Thus, in the lower level resistant cell lines, such as the ten-fold mitomycin C resistant L1210 and the tenfold adriamycin resistant 2780 ovarian cancer, Compound 1 maintained its complete activity as shown in Table II. The anti-tumor activity of compounds of the present invention in in vivo mouse murine models were studied. 3) Survival Studies In Tumor-Bearing Mice: 3.1 P-388 Leukemia Modles: One million P-388 leukemia cells originally obtained from American Type Culture Collection (Rockville, MD) are implanted into the peritoneum of adult DBA-2J male mice (Jackson Laboratories, Bar Harbor, ME). Twenty four hours later, drugs diluted in physiological saline are injected intraperitoneally at a volume of 0.1 mL/10 g body weight. The mice (10/group) are then followed for survival daily and compared to untreated tumor bearing mice. […] The perpendicular widths of the tumors are measured by caliper thrice weekly and converted to an estimated tumor mass according to the formula: ((1 X W)^2)/(2)= grams of tumor. [formula] wherein • W = width of tumor • l = length of tumor Tumor growth delay is calculated as the difference in days for tumors in treated mice to reach an estimated mass 750 mg or 1.5 g compared to that in untreated controls: Days to reach 750 mg (Treated - Control) = Days of Tumor Growth Delay [formula] […]

[2] = system: 8226/DOX-40; test: In vitro tumor cell viability assay using MTT dye; assay type: cell-based, Human; conditions: for IC50: Homo sapiens
Experimental: (§1) Compounds of the present invention were tested for their in vitro activity in tumor cells sensitive and resistant to standard anti-cancer agents. The tumor cell lines used in this protocol are 8226 human Myeloma^1; 8226/Dox-40^2, L-1210/Murine Leukemia, multidrug resistant L-210/^3, 2780 Human Ovarian Cancer and 2780/AD^4. Each of these resistant cell lines is known as a multidrug resistant or "MDR" cell line. These cell lines produce a 170,00 molecular weight membrane protein termed the P-glycoprotein which acts as an active drug efflux pump. Thus, once a cell produces the P-glycoprotein, it has the capability of pumping out of the cell a large variety of unrelated natural products. […] The protocol for measuring the effectiveness of compounds of the present invention is as follows: 2) In Vitro Tumor Cell Viability Assays Using MTT-Dye: Tumors are processed into a single cell suspension as described above. The cells are plated at a concentration of 3-5 X 10^4/1 mL well into plastic 96-well plates. […] Afterwards the medium containing the drug is removed, the cells are "washed" by centrifugation in fresh medium or phosphate-buffered saline (pH 7.4). A tetrazolium dye is then added (3,4,5-dimethylthiazol-2-yl)-2,5-diphenyl tetrazolium bromide (MTT). This dye forms a colored formazan product upon activation by mitochondrial reductases in viable cells. Typically, the formazan product is solubilized in acid-propanol or DMSO. The intensity of the color is proportional to viable cell numbers and this is quantitated by spectrophotometric absorbance ([…]) on a micro ELISA plate reader. Test results are calibrated in % control absorbance from untreated tumor cells (Mossman T: J Immunol Meth 65:55-63, 1983). Using the above procedure, Compound 1 was tested for its cytotoxic activity with respect to various tumor cell lines.

[3] = system: 2780/AD; test: In vitro tumor cell viability assay using MTT dye; assay type: cell-based, Human
Experimental: as §1

[4] = system: FRESH HUMAN TUMORS; test: Colony forming assay in fresh human tumors, all tumor types; assay type: cell-based; conditions: Total of all tumor types; .001 ug/mL continuously; tumor cell survival of less than 50% of control
Experimental: The clonogenic assays were conducted in accordance with the procedure described hereinbelow: 1) Colony Forming Assays in Soft Agar: Fresh human or murine tumors are disaggregated into single cell suspensions using mechanical, hypoosmotic and/or enzymatic (trypsin) methods. The single cells (about 5 X 10^4-10^5) are plated in 35 mm plastic petri dishes onto a 1 ml "feeder layer" of 0.3% agar dissolved in growth medium containing 5-10% vol/vol of heat-inactivated fetal bovine serum, molten 0.3% agar and the antibiotics penicillin (100 u/mL) and streptomycin (100 ug/mL). Drug exposures can be performed for one hour or continuously (drugs added to final plating medium). Tumor cell colonies > 60 uM in size are counted by automated image analysis after 10-20 days of incubation in a humidified, 5-10% CO2-gassed environment maintained at 37°C. Inhibition of colony formation is calculated based on comparisons to control (untreated) plates wherein the growth of hundreds of colonies/plate is typical. […]
Fresh human tumor specimens disaggregated to single cell suspensions and exposed to .001 ug/mL of drug continuously. Percent survival represents the fraction of tumor colonies (> 60 uM size) obtained after drug treatment compared to untreated cells of the same tumor. […] Each tumor sample is analyzed in three different petri dishes (i.e., n = 3 for each sample).

[5] = system: 16-C Mammary Adenocarcinoma; test: Tumor growth delay in mice, Mammary 16-C model; assay type: in vivo; conditions: 16-C Mammary Adenocarcinoma (Southern Research Institute)
Experimental: Corbett, T.H., et al., Cancer Chemo Rep., 5 (1975). Mammary 16-C Adenocarcinoma and M5-76 Sarcoma: Chunks of tumor (20-50 mg) are subcutaneously implanted into the flank of B6C3F1 female mice. Drugs (10-45 mg/kg) are dissolved in saline and injected intraperitoneally every four days for three times starting one day after tumor implantation. Tumors are measured bidimensionally as described above and tumor growth delay is calculated at times to reach 1.5 and 3.0 g of tumor mass.

With `CN(C)CCN1C(=O)c2cccc3cc4ccccc4c(c23)C1=O` [Compound 1, 2-[2'-(dimethylamino)ethyl]-1,2-dihydro-3H-dibenz(deh)isoquinoline-1,3-dione] the “Experimental Activity, ILS (Percentage Increased Lifespan)” value [1] was 00:ILS*, the “Cross Resistance” value ([2]; 8226/DOX-40 versus 8226 Human Myeloma) was 3-fold and the IC50 ([2]; 96 h, 8226/DOX-40, 40-fold resistant to Doxorubicin, 4-day drug exposure, MTT dye reduction, read-out: Activity (IC50)) was 0.036 µg/mL (≈ 0.113 µM). For the same compound, the IC50 ([2]; 8226 Myeloma Cells Resistant, continuous exposure, MTT dye assay, read-out: IC50 VALUES) was 0.03 µg/mL (≈ 0.0942 µM), the “Cross Resistance” value ([3]; 2780/AD versus 2780 Human Ovarian Cancer) was “None” and the IC50 ([3]; Homo sapiens, 96 h, 2780/AD MDR, P-glycoprotein (+), 10-fold resistance to Doxorubicin, 4-day drug exposure, MTT dye reduction) was 2.7 µg/mL (≈ 8.48 µM). The “Overall Response” value [4] was 51% and the “Experimental Activity, Days of Tumor Growth Delay” value [5] was 7 days TT.
